Experimental data as given in ChEMBL document CHEMBL3352542, “Synthesis, biological evaluation and molecular modeling study of 2-(1,3,4-thiadiazolyl-thio and 4-methyl-thiazolyl-thio)-quinazolin-4-ones as a new class of DHFR inhibitors” (Bioorg Med Chem Lett, 2014).
Calls of active or inactive are those of the source. The calls are words filed in the database; no cut-off is given here.

Assays:
[1] = target: T1, Dihydrofolate reductase (Bos taurus, UniProt P00376); test: Inhibition of bovine liver DHFR
T1 sequence (P00376 whole entry): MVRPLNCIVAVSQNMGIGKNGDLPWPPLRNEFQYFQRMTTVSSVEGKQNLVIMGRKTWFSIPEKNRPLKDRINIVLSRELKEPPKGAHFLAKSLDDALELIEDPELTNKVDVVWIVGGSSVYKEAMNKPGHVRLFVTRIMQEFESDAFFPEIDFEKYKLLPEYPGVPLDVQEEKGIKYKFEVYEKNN

[2] = system: Staphylococcus aureus; test: Antimicrobial activity against Staphylococcus aureus assessed as inhibition zone at 200 ug/disk after 24 hrs by disc-diffusion method; format: functional; settings: read-out: IZ
[3] = system: Bacillus subtilis; test: Antimicrobial activity against Bacillus subtilis assessed as inhibition zone at 200 ug/disk after 24 hrs by disc-diffusion method; format: functional; settings: read-out: IZ
[4] = system: Escherichia coli; test: Antimicrobial activity against Escherichia coli assessed as inhibition zone at 200 ug/disk after 24 hrs by disc-diffusion method; format: functional; settings: read-out: IZ
[5] = system: Pseudomonas aeruginosa; test: Antimicrobial activity against Pseudomonas aeruginosa assessed as inhibition zone at 200 ug/disk after 24 hrs by disc-diffusion method; format: functional; settings: read-out: IZ
[6] = system: Candida albicans; test: Antimicrobial activity against Candida albicans assessed as inhibition zone at 200 ug/disk after 24 hrs by disc-diffusion method; format: functional; settings: read-out: IZ
[7] = system: Staphylococcus aureus; test: Antimicrobial activity against Staphylococcus aureus assessed as inhibition of visible growth after 24 hrs by disc-diffusion method; format: functional, organism-based
[8] = system: Bacillus subtilis; test: Antimicrobial activity against Bacillus subtilis assessed as inhibition of visible growth after 24 hrs by disc-diffusion method; format: functional, organism-based
[9] = system: Escherichia coli; test: Antimicrobial activity against Escherichia coli assessed as inhibition of visible growth after 24 hrs by disc-diffusion method; format: functional, organism-based
[10] = system: CCRF-CEM; test: Growth inhibition of human CCRF-CEM cells at 10 uM after 48 hrs; format: functional
[11] = system: HL-60(TB); test: Growth inhibition of human HL-60(TB) cells at 10 uM after 48 hrs; format: functional
[12] = system: K562; test: Growth inhibition of human K562 cells at 10 uM after 48 hrs; format: functional
[13] = system: MOLT-4; test: Growth inhibition of human MOLT4 cells at 10 uM after 48 hrs; format: functional
[14] = system: RPMI-8226; test: Growth inhibition of human RPMI8226 cells at 10 uM after 48 hrs; format: functional
[15] = system: SR; test: Growth inhibition of human SR cells at 10 uM after 48 hrs; format: functional
[16] = system: A549; test: Growth inhibition of human A549 cells at 10 uM after 48 hrs; format: functional
[17] = system: HOP-92; test: Growth inhibition of human HOP92 cells at 10 uM after 48 hrs; format: functional
[18] = system: NCI-H226; test: Growth inhibition of human NCI-H226 cells at 10 uM after 48 hrs; format: functional
[19] = system: NCI-H522; test: Growth inhibition of human NCI-H522 cells at 10 uM after 48 hrs; format: functional
[20] = system: HCT-116; test: Growth inhibition of human HCT116 cells at 10 uM after 48 hrs; format: functional
[21] = system: HCT-15; test: Growth inhibition of human HCT15 cells at 10 uM after 48 hrs; format: functional
[22] = system: HT-29; test: Growth inhibition of human HT-29 cells at 10 uM after 48 hrs; format: functional
[23] = system: KM12; test: Growth inhibition of human KM12 cells at 10 uM after 48 hrs; format: functional
[24] = system: SF-295; test: Growth inhibition of human SF295 cells at 10 uM after 48 hrs; format: functional
[25] = system: SF-539; test: Growth inhibition of human SF539 cells at 10 uM after 48 hrs; format: functional
[26] = system: SNB-19; test: Growth inhibition of human SNB19 cells at 10 uM after 48 hrs; format: functional
[27] = system: U-251; test: Growth inhibition of human U251 cells at 10 uM after 48 hrs; format: functional
[28] = system: Malme-3M; test: Growth inhibition of human MALME-3M cells at 10 uM after 48 hrs; format: functional
[29] = system: MDA-MB-435; test: Growth inhibition of human MDA-MB-435 cells at 10 uM after 48 hrs; format: functional
[30] = system: SK-MEL-5; test: Growth inhibition of human SK-MEL-5 cells at 10 uM after 48 hrs; format: functional
[31] = system: UACC-257; test: Growth inhibition of human UACC257 cells at 10 uM after 48 hrs; format: functional
[32] = system: UACC-62; test: Growth inhibition of human UACC62 cells at 10 uM after 48 hrs; format: functional
[33] = system: OVCAR-4; test: Growth inhibition of human OVCAR4 cells at 10 uM after 48 hrs; format: functional
[34] = system: 786-0; test: Growth inhibition of human 786-0 cells at 10 uM after 48 hrs; format: functional
[35] = system: A498; test: Growth inhibition of human A498 cells at 10 uM after 48 hrs; format: functional
[36] = system: CAKI-1; test: Growth inhibition of human CAKI-1 cells at 10 uM after 48 hrs; format: functional
[37] = system: RXF 393; test: Growth inhibition of human RXF393 cells at 10 uM after 48 hrs; format: functional
[38] = system: UO-31; test: Growth inhibition of human UO31 cells at 10 uM after 48 hrs; format: functional
[39] = system: PC-3; test: Growth inhibition of human PC3 cells at 10 uM after 48 hrs; format: functional
[40] = system: MCF7; test: Growth inhibition of human MCF7 cells at 10 uM after 48 hrs; format: functional
[41] = system: MDA-MB-231; test: Growth inhibition of human MDA-MB-231 cells at 10 uM after 48 hrs; format: functional
[42] = system: Hs-578T; test: Growth inhibition of human Hs 578T cells at 10 uM after 48 hrs; format: functional
[43] = system: T47D; test: Growth inhibition of human T47D cells at 10 uM after 48 hrs; format: functional
[44] = system: MDA-MB-468; test: Growth inhibition of human MDA-MB-468 cells at 10 uM after 48 hrs; format: functional
[45] = system: HOP-62; test: Growth inhibition of human HOP62 cells at 10 uM after 48 hrs; format: functional
[46] = system: SK-MEL-28; test: Growth inhibition of human SK-MEL-28 cells at 10 uM after 48 hrs; format: functional, cell-based

## Cc1ccc(-n2c(Sc3nnc(N)s3)nc3ccc(Cl)cc3c2=O)cc1
[1]
  IC50: 8 µM
[2]
  zone of inhibition at 200 µg/disc: 18 mm
[3]
  zone of inhibition at 200 µg/disc: 20 mm
[4]
  zone of inhibition at 200 µg/disc: 18 mm
[5]
  zone of inhibition at 200 µg/disc: 14 mm
[6]
  zone of inhibition at 200 µg/disc: 10 mm
[7]
  Activity: Active
[8]
  Activity: Active
[9]
  Activity: Active
[10]
  growth inhibition (GI): inactive
[11]
  growth inhibition (GI): inactive
[12]
  growth inhibition (GI): inactive
[13]
  growth inhibition (GI): inactive
[14]
  growth inhibition (GI): inactive
[15]
  growth inhibition (GI): inactive
[16]
  growth inhibition (GI): inactive
[17]
  growth inhibition (GI): inactive
[18]
  growth inhibition (GI): inactive
[19]
  growth inhibition (GI): inactive
[20]
  growth inhibition (GI): inactive
[21]
  growth inhibition (GI): inactive
[22]
  growth inhibition (GI): inactive
[23]
  growth inhibition (GI): inactive
[24]
  growth inhibition (GI): inactive
[25]
  growth inhibition (GI): inactive
[26]
  growth inhibition (GI): inactive
[27]
  growth inhibition (GI): inactive
[28]
  growth inhibition (GI): inactive
[29]
  growth inhibition (GI): inactive
[30]
  growth inhibition (GI): inactive
[31]
  growth inhibition (GI): inactive
[32]
  growth inhibition (GI): inactive
[33]
  growth inhibition (GI): inactive
[34]
  growth inhibition (GI): inactive
[35]
  growth inhibition (GI): inactive
[36]
  growth inhibition (GI): inactive
[37]
  growth inhibition (GI): inactive
[38]
  growth inhibition (GI): inactive
[39]
  growth inhibition (GI): inactive
[40]
  growth inhibition (GI): inactive
[41]
  growth inhibition (GI): inactive
[42]
  growth inhibition (GI): inactive
[43]
  growth inhibition (GI): inactive
[44]
  growth inhibition (GI): inactive
[45]
  growth inhibition (GI): inactive
[46]
  growth inhibition (GI): inactive

## COc1ccc(-n2c(Sc3nnc(N)s3)nc3ccc(C)cc3c2=O)cc1
[1]
  IC50: 3 µM
[2]
  zone of inhibition at 200 µg/disc: 8 mm
[3]
  zone of inhibition at 200 µg/disc: 8 mm
[4]
  zone of inhibition at 200 µg/disc: 8 mm
[5]
  zone of inhibition at 200 µg/disc: 8 mm
[6]
  zone of inhibition at 200 µg/disc: 8 mm
[10]
  growth inhibition (GI): inactive
[11]
  growth inhibition (GI): inactive
[12]
  growth inhibition (GI): inactive
[13]
  growth inhibition (GI): inactive
[14]
  growth inhibition (GI): inactive
[15]
  growth inhibition (GI): inactive
[16]
  growth inhibition (GI): inactive
[17]
  growth inhibition (GI): inactive
[18]
  growth inhibition (GI): inactive
[19]
  growth inhibition (GI): inactive
[20]
  growth inhibition (GI): inactive
[21]
  growth inhibition (GI): inactive
[22]
  growth inhibition (GI): inactive
[23]
  growth inhibition (GI): inactive
[24]
  growth inhibition (GI): inactive
[25]
  growth inhibition (GI): inactive
[26]
  growth inhibition (GI): inactive
[27]
  growth inhibition (GI): inactive
[28]
  growth inhibition (GI): inactive
[29]
  growth inhibition (GI): inactive
[30]
  growth inhibition (GI): inactive
[31]
  growth inhibition (GI): inactive
[32]
  growth inhibition (GI): inactive
[33]
  growth inhibition (GI): inactive
[34]
  growth inhibition (GI): inactive
[35]
  growth inhibition (GI): inactive
[36]
  growth inhibition (GI): inactive
[37]
  growth inhibition (GI): inactive
[38]
  growth inhibition (GI): inactive
[39]
  growth inhibition (GI): inactive
[40]
  growth inhibition (GI): inactive
[41]
  growth inhibition (GI): inactive
[42]
  growth inhibition (GI): inactive
[43]
  growth inhibition (GI): inactive
[44]
  growth inhibition (GI): inactive
[45]
  growth inhibition (GI): inactive
[46]
  growth inhibition (GI): inactive
